Assay results taken from US20100047294A1, “SEMI-FINISHED PRODUCT IN THE MANUFACTURE OF A COMPOSITION FOR SKIN OR HAIR CARE” (OY GRANULA AB LTD, priority 2006, published 2010).
Read-outs that look alike come from different tables or passages of the source.

Columns and labels:
[1] = extracts from knot wood of the tree trunk; compared with Trolox; lower value = better capture; cited from earlier work
[2] = Ability to capture free radicals (statements in words)

Compound | Capture of peroxyl radicals in vitro [1] [g/mol] | further results
Cc1c(C)c2c(c(C)c1O)CCC(C)(C(=O)O)O2 (centres unmarked) [trolox, reference compound] | 125 | –
COc1cc(C[C@H]2COC(=O)[C@@H]2Cc2ccc(O)c(OC)c2)ccc1O [matairesinol] | 345 | –
Oc1ccc([C@H]2Oc3c(ccc(O)c3O)[C@@H](O)[C@H]2O)cc1 [teracasidine] | 128 | –
COc1cc(C[C@H]2C(=O)OC[C@@H]2[C@H](O)c2ccc(O)c(OC)c2)ccc1O [hydroxymatairesinol] | 179 | ability to capture free radicals, in words [2]: relatively good in capturing the free radicals
COc1cc(CC2COC(=O)C2(O)Cc2ccc(O)c(OC)c2)ccc1O (centres unmarked) [nortrachelogenin] | 169 | –
COc1cc(C[C@H]2CO[C@H](c3ccc(O)c(OC)c3)[C@H]2CO)ccc1O [lariciresinol] | 370 | –
Oc1ccc([C@H]2Oc3c(ccc(O)c3O)[C@@H](O)[C@H]2O)cc1O [melacasidine] | 50 | –
COc1cc(C[C@H]2COC(=O)C2C(=O)c2ccc(O)c(OC)c2)ccc1O (some centres unmarked) [7-oxomatairesinol] | – | ability to capture free radicals, in words [2]: even better than that of hydroxymatairesinol; ability to capture free radicals, in words ([2]; listed as Oxomatairesinol): comparable to that of hydroxymatairesinol or even better; ability to capture free radicals, in words ([2]; listed as oxomatairesinol): relatively good in capturing the free radicals
COc1cc(C[C@@H](CO)[C@H](CO)Cc2ccc(O)c(OC)c2)ccc1O [secoisolariciresinol] | – | ability to capture free radicals, in words [2]: relatively good in capturing the free radicals
COc1cc([C@H]2c3cc(O)c(OC)cc3C[C@@H](CO)[C@@H]2CO)ccc1O [cyclolariciresinol] | 118 | –
pinoresinol | 129 | –
